Like-named read-outs stand apart in the source and are kept apart here. Where a SMILES comes first, the peptide text is derived from it. [ ]: non-standard residue; d: D form. The star is where a group is joined. DOTA = O=C(O)CN1CCN(CC(=O)O)CCN(CC(=O)*)CCN(CC(=O)O)CC1; NMe1Nal = CN[C@@H](Cc1cccc2ccccc12)C(=O)O; 1Nal = N[C@@H](Cc1cccc2ccccc12)C(=O)O; NMeNle = CCCC[C@H](NC)C(=O)O; Sar = CNCC(=O)O

The format of data set [1] is in vitro ADME, mouse. The method, then: Metabolic stability is an important determinant of the efficacy of peptide radiopharmaceuticals and their progression as promising theranostic candidates. In vitro, metabolic degradation through hepatic and renal enzymes can be assessed by utilizing liver and kidney tissue homogenates. Radiolabeled peptides [^68Ga]Ga-DOTA-GA4, and D-Ala substituted variants [^68Ga]Ga-DOTA-GA7, [^68Ga]Ga-DOTA-GA11-GA13 were incubated in liver and kidney mouse homogenates, in human serum at 37°C, and in HEPES buffer (pH 7.4) as a negative control. Following a time course experiment, the metabolites were analyzed using HPLC to quantify the % breakdown of the respective parent peptide. […]
To assess the stability of 68Ga radiolabeled peptides against enzymatic degradation, duplicate samples (750-900 pmol/mL, 2-5MBq) were incubated at 37 ℃ with pooled human serum, 15% […]
mouse kidney homogenate, 30% mouse liver homogenate or 20 mM HEPES, pH 7.3 (control).
Human blood was collected, and serum prepared using SSTII advance vacutainer tubes according to the manufacturer’s instructions (Becton Dickinson, New Jersey, USA). Mouse kidney and liver homogenates were prepared by washing the tissues in ice-cold HEPES buffer, pH 7.3 and placing them in pre-chilled tubes containing HEPES buffer and 2.38 mm metal beads (Mo-Bio Laboratories, Hilden, Germany). Tissues were homogenised using the PowerLyzer24 homogeniser (Qiagen, Hilden, Germany) according to the manufacturer’s instructions. 68Ga radiolabeled peptides were then incubated with the various lysates at 37 ℃ and samples were collected at 15, 30, 60 and 90 min. Reactions were terminated by addition of an equal volume of acetonitrile and centrifugation for 2 min at 15,000 rpm. Supernatants were diluted in water before being analysed by HPLC using a Kinetex C18 XB column (5µm

A further data set has as its system AR42J xenografts. The note with it: mouse, in vivo, 1 h; cited from earlier work.
Another data set in a line: in vivo. Conditions: female, NSG, mouse, iv, total radioactivity. How it is done: (§1) In order to assess these promising ligands as potential theranostics, the library of [^68Ga]Ga-DOTA-peptides was evaluated using static small animal PET imaging and quantifying biodistribution studies. This study was performed to investigate tumor uptake as well as the accumulation of radioligands in other organs. Mice bearing A431-CCK2R tumors were imaged at 1- and 2 hours post tracer injection, and tracer biodistribution was evaluated at the 1 hour and 2.5 hour time points to quantify tumor uptake and retention. […]
(§2) Small Animal PET Imaging and Biodistribution Studies
(§3) Female NSG mice (age 11-14 weeks) were sourced from Animal Resources Centre, (Canning Vale, Western Australia) and were inoculated subcutaneously on the right flank with 1-3 x 106 […]
(§4) A431-CCK2R cells in PBS:Matrigel (1:1). […]
(§5) Mice were assigned to imaging and/or biodistribution groups (tumour volumes: 119-327 mm3).
(§6) The respective 68Ga labelled tracer (1.63–3.81 MBq, 170µL, 13.7–14.2 pmoles) containing vehicle solution (75µL, DMSO:Tween 80: water, 2:2:6 v/v/v) was then administered to mice intravenously via tail vein injection. Three mice were euthanized for biodistribution 1 hour post injection (n=3) and selected tissues were excised, weighed, and counted using a Capintec (Captus 4000e) gamma counter. Three mice were anaesthetised using 1.5% isoflurane and imaged at 1 hour (n=3) and 2 hours (n=3) with a G8 Small Animal PET/CT scanner (Perkin […]
(§7) Elmer/Sofie Biosciences). A 10 min static PET scan was acquired, followed immediately by a CT scan (Supplementary Data, pS51–S55). PET images were acquired using the G8 acquisition engine software and reconstructed using a 3D maximal likelihood and expectation maximization (ML-EM) algorithm. PET images were analysed using VivoQuant software, version 3.0 (inviCRO Imaging Services and Software) to quantify maximum standardised uptake value in regions of interest (SUVmax). Background regions for imaging experiments were calculated by quantitating mean standardised uptake value (SUVmean) of the abdomen and gut region. The region of interest was selected due to low uptake in abdomen/gut during imaging. After imaging the 2-hour time point, mice organs were harvested for biodistribution […]
(§8) For blocking CCK2R binding a solution of N-[(3R)-2,3-Dihydro-1-[2-(2-methylphenyl)-2-oxoethyl]-2-oxo-5-phenyl-1H-1,4-benzodiazepin-3-yl]-N′-(3-methylphenyl)-urea (YM022; Sigma Aldrich) was used. YM022 (75µL of a 1 mg/ml solution constituting DMSO:Tween 80: water, 2:2:6 v/v/v) was added to the respective 68Ga labelled tracer (1.41–3.61 MBq, 100 µL, 13.7–14.2 pmoles) and this mixture ([…]) was administered in three mice intravenously via tail vein injection and organs harvested at 1 hour post injection for biodistribution analysis, as above.
(§9) All animal experiments were performed with the approval of the Peter MacCallum Cancer Centre Animal Experimentation Ethics Committee and in accordance with the Australian code for the care and use of animals for scientific purposes, 8th Edition, 2013 (AEEC Approval

The conditions of data set [2]: mouse, in vivo. The method, then:
as §1, §2, §3, §4, §5, §6, §7, §8, §9

Data set [3] is classed as physicochemical. The method, then: Lipophilicity, expressed as the octanol-water partition coefficient, constitutes an important property in drug action, influencing both pharmacokinetic and pharmacodynamics processes. The distribution coefficient (LogD7.4) of [^68Ga]Ga-DOTA-peptides was determined by measuring radioactivity distribution in the aqueous phase (phosphate buffer pH7.4) and the organic phase (n-octanol). […]
To determine the distribution coefficient (logD 7.4), 68Ga radiolabeled peptides [68Ga]Ga-DOTA-GA4, [68Ga]Ga-DOTA-GA7, and [68Ga]Ga-DOTA-GA11–GA13 were diluted to approximately 20 pmol/mL in PBS (pH 7.4) and an equal volume of n-octanol was added. The mixture was vortexed vigorously for 10 cycles of 1 min at room temperature before being centrifuged for 6 min to separate the two phases. Equal volumes from each phase were aliquoted into individual counting tubes and analysed for 1 min using the Perkin Elmer 2480 Wizard2™ gamma counter (PerkinElmer, Massachusetts, USA). The distribution coefficient was calculated using the following equation LogD = […]. […]

Another data set relates to CCK2R. The arrangement: method as in PMID 33826325. Conditions: cited from earlier work.
The target of a further data set is T1, human CCK2R (Homo sapiens, UniProt P32239).
T1 construct: stably transfected to over-express the human full-length CCK2R (A431-CCK2R); expressed in transfected cells
T1 sequence (P32239 1-447): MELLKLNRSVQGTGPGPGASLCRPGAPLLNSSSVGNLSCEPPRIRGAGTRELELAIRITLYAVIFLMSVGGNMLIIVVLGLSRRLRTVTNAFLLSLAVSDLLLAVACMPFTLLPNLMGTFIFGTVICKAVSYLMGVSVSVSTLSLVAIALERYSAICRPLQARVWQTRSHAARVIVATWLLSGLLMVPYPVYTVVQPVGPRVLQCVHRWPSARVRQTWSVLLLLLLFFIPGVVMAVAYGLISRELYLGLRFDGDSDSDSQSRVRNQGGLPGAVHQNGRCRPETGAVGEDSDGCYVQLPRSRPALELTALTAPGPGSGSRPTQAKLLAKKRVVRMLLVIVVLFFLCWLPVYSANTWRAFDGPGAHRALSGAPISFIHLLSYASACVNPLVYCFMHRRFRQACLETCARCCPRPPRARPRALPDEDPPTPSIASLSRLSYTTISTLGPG
Kind of data set: Competitive binding against [177Lu]Lu-DOTA-CP04 in A431-CCK2R cells. Conditions: linear peptide vs its Ga-DOTA form. How it is done: Materials and Methods: Biology […]
In Vitro CCK2R-Ligand Competitive Binding Assays
All CCK2R binding experiments were conducted using A431 (human epidermoid carcinoma) […]
cells stably transfected to over-express the human full-length CCK2R (A431-CCK2R) (gifted […]
by Dr. Elisabeth von Guggenberg, Medizinische Universität Innsbruck).[41] As a negative […]
control, A431 cells stably transfected with an empty vector were analysed simultaneously […]
(A431-EV). All A431 cells were maintained in DMEM (Gibco, Australia) media supplemented […]
with 10% foetal calf serum and 250 µg/mL G418 as described previously.[32]
The affinity of all peptides for the CCK2R was evaluated using competitive binding assays […]
Briefly, 48 hours before the experiment […]
cells were plated at a density of 300,000 cells per well in 12 well plates. On the day of the […]
experiment, linear peptides were diluted in DMEM supplemented with 1% foetal calf serum to […]
DOTA-CP04 was added to each dilution. Cells were washed twice in ice-cold binding buffer […]
(DMEM supplemented with 1% foetal calf serum) and resuspended in 1 mL of the pre-prepared […]
peptide mix before being incubated at room temperature for 1 hour. Post-incubation the media […]
was removed and kept for analysis (unbound fraction) and the cells were washed twice in ice- […]
cold PBS which was pooled with the unbound fraction. Finally, 1 M NaOH (150µL) was added […]
to the wells and allowed to incubate for 5 min before lysates were collected (bound fraction).
A small volume of lysate was kept aside to determine protein concentration using the Pierce® BCA protein assay kit (Thermo Fisher, Australia). All samples were analysed using the Perkin […]
normalised according to protein concentration. Half maximal inhibitory concentration (IC50) was determined using nonlinear regression calculated using Gr aphPad Prism Software (GraphPad Software, California, USA). […]

What is called tissue uptake is the percentage of the injected dose found per gram of tissue. Lower therefore signals low uptake. The term logD denotes lipophilicity at a set pH, counting ionised and neutral species. Read a high logD as higher lipophilicity. For the molecule `CCCC[C@@H](C(=O)N[C@@H](CC(=O)O)C(=O)N(C)[C@@H](Cc1cccc2ccccc12)C(N)=O)N(C)C(=O)[C@H](Cc1c[nH]c2ccccc12)NC(=O)CN(C)C(=O)[C@H](Cc1ccc(O)cc1)NC(=O)[C@H](C)NC(=O)[C@@H](CCC(=O)O)NC(=O)[C@@H](CCC(=O)O)NC(=O)[C@@H](CCC(=O)O)NC(=O)[C@@H](CCC(=O)O)NC(=O)[C@@H](CCC(=O)O)NC(=O)[C@@H](CCC(=O)O)NC(=O)CN1CCN(CC(=O)O)CCN(CC(=O)O)CCN(CC(=O)O)CC1` [[^68Ga]Ga-DOTA-GA4, metal not drawn] ({DOTA}-[dE][dE][dE][dE][dE][dE]AY[Sar]W[NMeNle]D[NMe1Nal]-NH2), the “metabolites in kidney homogenates” value in data set [1] was “no observable metabolites detected”. In addition, in data set [1], the “metabolites in liver homogenates” value is reported as “no observable metabolites detected”. The Tumor uptake with AR42J xenografts is reported as 31.1 ± 5.3 % ID/g. In the data set “in vivo”, the tissue to tissue ratio at 1 h is 11.4 ± 0.9. The SUV at 2 h in “in vivo” (SUVmax) worked out at 0.38 SUV. Besides, the tissue uptake at 1 h in data set [2] (3 mg/kg, Uptake in A431-CCK2R Tumors, 1 hr Blocked) was 2.05 ± 0.14 %ID/g; in data set [2] (Uptake in A431-CCK2R Tumors, 1 hr), 8.77 ± 1.21 %ID/g; in data set [2] (Uptake in Organs: Blood), 0.92 ± 0.05 %ID/g; in data set [2] (Uptake in Organs: Heart), 0.45 ± 0.03 %ID/g; in data set [2] (Uptake in Organs: Kidneys) it was 20.3 ± 0.89 %ID/g; in data set [2] (Uptake in Organs: Liver), 0.51 ± 0.01 %ID/g. Besides, the tissue uptake at 1 h in data set [2] (Uptake in Organs: Lungs) was 0.92 ± 0.04 %ID/g; in data set [2] (Uptake in Organs: Muscle), 0.14 ± 0.01 %ID/g; in data set [2] (Uptake in Organs: Spleen) it was 0.62 ± 0.14 %ID/g; in data set [2] (Uptake in Organs: Stomach), 2.37 ± 0.12 %ID/g. For the same molecule, in data set [2] (Uptake in A431-CCK2R Tumors, 2.5 hr), the tissue uptake at 2.5 h is 7.54 ± 0.5 %ID/g. Besides, in data set [3], the logD is -2.97 ± 0.13.
What is called IC50 is the concentration that inhibits the measured activity by half. In the case of `CCCC[C@@H](C(=O)N[C@@H](CC(=O)O)C(=O)N[C@@H](Cc1cccc2ccccc12)C(N)=O)N(C)C(=O)[C@H](Cc1c[nH]c2ccccc12)NC(=O)CN(C)C(=O)[C@H](Cc1ccc(O)cc1)NC(=O)[C@H](C)NC(=O)[C@@H](CCC(=O)O)NC(=O)[C@@H](CCC(=O)O)NC(=O)[C@@H](CCC(=O)O)NC(=O)[C@@H](CCC(=O)O)NC(=O)[C@@H](CCC(=O)O)NC(=O)[C@H](N)CCC(=O)O` [GA1, [D-Glu]6-Ala-Tyr-NMeGly-Trp-NMeNle-Asp-Nal-NH2] (H-[dE][dE][dE][dE][dE][dE]AY[Sar]W[NMeNle]D[1Nal]-NH2), the “affinity to the CCK2R target” value in the data set on CCK2R (previously investigated) is “sub-nanomolar”. Besides, the IC50 in the data set with CCK2R (previously shown, Ga-DOTA-GA1 form, read-out: binding affinity (IC50) against CCK2R) is 50 pM. Also, the “fold decrease in affinity for CCK2R without gallium coordinated DOTA at the N-terminus” value on human CCK2R was 5 fold.
